Values of other authors, collected in patent US20070218033A1, “Composition and method of treating hepatitis C” (priority 1991, published 2007).
Where two headings read alike, the source gives them in different places. Where no end group is shown, it is not given here.

Tests used:
HCV-related diseases = conditions: in vivo
[1] = test system: response to influenze vaccine; conditions: subcutaneously twice weekly
[2] = test system: Woodchuck Hepatitis Virus; conditions: woodchuck infected with Woodchuck Hepatitis Virus
hepatitis B virus (HBV) = conditions: treated for a year
[3] = test system: natural killer-cell activity; conditions: THNα1 and interferon together; immunosuppressed mice
[4] = test system: nonsmall cell lung cancer
[5] = test system: post-transfusion NANB hepatitis
[6] = test system: chronic hepatitis C (NANB hepatitis)
chronic NANB hepatitis = conditions: for proportion of patients with normal ALT levels at week 48: after treatment
[7] = 900 μgrams/m^2 subcutaneously after radiotherapy

In the case of `Nc1nc2c(ncn2COCCO)c(=O)[nH]1` [acyclovir], the “effectiveness in HCV-related diseases” value (HCV-related diseases) is given as “ineffective”.

For “THNα1: 28 amino acidic polypeptide, molecular weight 3100, initially isolated from TF-5, sequenced and chemically synthesized (SDAAVDTSSEITTKDLKEKKEVVEEAEN; not fully specified; ends and bridges not checked; UniProt P06454 2-29, looked up)”, the “clinical or biochemical toxicity” value ([1]; drug recipients) is listed as “No clinical or biochemical toxicity”, the “levels of antibody to influenza versus controls” value ([1]; six weeks post-vaccine) is listed as “higher levels” and the “viral DNA replication” value [2] is listed as “suppressed”. The “patients with reduced levels of serum HBV DNA” value (hepatitis B virus (HBV); pooled THNα1 (5) and TF-5 (2) patients) was 6 of the 7, the “patients initially positive for serum HBsAg who subsequently cleared this antigen” value (hepatitis B virus (HBV); pooled THNα1 and TF-5 patients) was 5 of 6 and the “effect on natural killer-cell activity” value [3] was “synergistic effect”. For the same molecule, the T-cell numbers [4, 7] was “no increase”, the radiation-suppressed immune function [4, 7] was “some restoration” and the “relapse-free survival and overall survival versus placebo group” value ([4]; 900 μgrams/m^2 subcutaneously twice weekly, or daily for two weeks then twice weekly, both treatment groups) was “greater”.

For α-interferon, the side effects ([5]; 1 MU/day) is listed as “virtually absent”, the “patients who improved their serum alanine transaminase (ALT) levels within one month of starting therapy” value ([5]; 5 MU daily in seven patients, 1 MU daily in three patients, ten patients) is listed as “eight of ten” and the side effects ([5]; 5 MU/day dose) is listed as “common”. The “degree of portal inflammation and loss of parenchymal hepatocytic necrosis in post-treatment liver biopsies” value ([5]; three patients with post-treatment liver biopsies) was “marked improvement”, the “mean serum ALT and histological features of the liver” value (chronic HCV infection; 2 MU subcutaneously three times weekly for six months, 21 patients) was “improved significantly” and the “other patients with a decrease in mean ALT of more than 50%” value (chronic HCV infection; 2 MU subcutaneously three times weekly for six months, number of patients) was “three”. For the same molecule, the “complete response (decline in mean serum ALT to the normal range during therapy)” value (chronic HCV infection; 2 MU subcutaneously three times weekly for six months, ten of 21 patients) was 48%, the “patients still with normal ALT values six to twelve months after discontinuation of therapy” value (chronic HCV infection; 2 MU three times weekly for six months, two patients) was 10% and the “relapse within six months after the completion of treatment” value ([6]; 1 MU) was 44%. The “responded to treatment (serum ALT)” value ([6]; 1 MU three times weekly for 24 weeks, nine of sixteen patients) was 56%, the “relapse within six months after the completion of treatment” value ([6]; 3 MU) was 51% and the “liver histology (regression of lobular and periportal inflammation)” value ([6]; 3 MU three times weekly for 24 weeks) was “histologic improvement”. The “serum ALT level became completely normal” value ([6]; 3 MU three times weekly for 24 weeks, 22 of the 26 patients who responded) was 85%, the “proportion of patients with normal ALT levels at 24 weeks” value (chronic NANB hepatitis; 1 MU group) was 45% and the “proportion of patients with normal ALT levels at week 48” value (chronic NANB hepatitis; 1 MU group) was 20%. The “mean serum ALT levels during the 24 week treatment period” value (chronic NANB hepatitis; 1 MU three times a week) was “decreased”, the “proportion of patients with normal ALT levels at 24 weeks” value (chronic NANB hepatitis; 3 MU group) was 39% and the “proportion of patients with normal ALT levels at week 48” value (chronic NANB hepatitis; 3 MU group) was 28%. For the same molecule, the “decrease of mean serum ALT levels during the 24 week treatment period” value (chronic NANB hepatitis; 3 MU three times a week) was “statistically significant”, the “relapse in disease activity among responders when interferon was stopped” value (chronic NANB hepatitis; fraction of the responders) was “approximately half” and the “severity of histological changes in repeat liver biopsy specimens” value (chronic NANB hepatitis; higher dose group (3 MU)) was “significant decrease”. For the same molecule, the “severity of histological changes in repeat liver biopsy specimens” value (chronic NANB hepatitis; lower dose group (1 MU)) was “not in the lower dose group”.
